The values below are quoted from earlier work in patent US20220226232A1, “Dental formulation comprising xylitol and propolis” (SERVIDENCE INC., priority 2021, published 2022).

SMILES strings stand for the structures.

The conditions of this data set: oral exposition.

In the case of `OC[C@@H](O)[C@H](O)[C@@H](O)CO` [xylitol], the prevention of otitis is 20%.
